The values that follow come from ChEMBL document CHEMBL1201862, “PubChem BioAssay data set” (2004).

Test systems include HCC 2998; SR; DMS-273; COLO 205; SF-295; HL-60; OVCAR-3; NCI-H522; HCT-116; TK-10; IGROV-1; NCI-H460; NCI-H23; RPMI-8226; SK-MEL-5; EKVX; CAKI-1.
Common to all, as to assay: NCI-60 cell line screen, 48 h

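Grown in 96-well plates, cells were treated for 48 hours with each compound at five concentrations. Insufficient inhibition: endpoint recorded as highest concentration tested. The concentration for 50% growth inhibition is given as GI50.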 The source made the active and inactive calls. Cut-off read from the data, not from the text of the source: active = GI50 up to about 1.1 µM and inactive = higher. Where only a bound is given, the exact number is not on record here.

For `COc1ccc(N(C)Sc2ccccc2)cc1`, the GI50 with HCC 2998 is > 100 µM (inactive); with SR, 43.7 µM (inactive); in the assay on DMS-273 it was 34.4 µM (inactive); in the assay on COLO 205 it was > 100 µM (inactive); in the assay on SF-295, 55.1 µM (inactive); in the assay with HL-60 it was 15.1 µM (inactive). For the same compound, the GI50 with OVCAR-3 was 52.4 µM (inactive); with NCI-H522, 38.8 µM (inactive); in the assay on HCT-116, 43.7 µM (inactive); in the assay on TK-10, > 100 µM (inactive); with IGROV-1, 19.9 µM (inactive); in the assay on NCI-H460, 74.5 µM (inactive). The GI50 is 83.4 µM (inactive) with NCI-H23, 36.1 µM (inactive) in the assay on RPMI-8226 and 47.4 µM (inactive) in the assay on SK-MEL-5.

Turning to `CN(C)NC1=C([N+](=O)[O-])C=NN(c2ccccc2)C1`, the GI50 in the assay with HCC 2998 was 1.79 µM (inactive); with SR, 0.811 µM (active); with DMS-273, 1.75 µM (inactive); with COLO 205 it was 1.79 µM (inactive); in the assay with SF-295, 1.81 µM (inactive); in the assay with HL-60, 2.04 µM (inactive). In addition, the GI50 is 1.85 µM (inactive) in the assay with OVCAR-3; 1.75 µM (inactive) in the assay on EKVX; 0.177 µM (active) in the assay with NCI-H522; 1.82 µM (inactive) with HCT-116; 3.19 µM (inactive) with TK-10; 2.19 µM (inactive) in the assay with IGROV-1. Also, the GI50 is 2.09 µM (inactive) with NCI-H460, 1.95 µM (inactive) in the assay with CAKI-1, 1.87 µM (inactive) in the assay with NCI-H23 and 2.56 µM (inactive) in the assay with SK-MEL-5.

As to `CC1(c2ccccc2)CC12C(=O)NC(=O)NC2=O` (stereo not given), the GI50 in the assay with HCC 2998, in the assay with SR, in the assay with DMS-273, with COLO 205, in the assay on SF-295 and with HL-60 was > 100 µM (inactive) each time. For the same compound, the GI50 with OVCAR-3, in the assay on EKVX, with NCI-H522, in the assay on HCT-116, in the assay with TK-10 and in the assay with IGROV-1 was > 100 µM (inactive) each time. Besides, the GI50 in the assay on NCI-H460 was > 10 µM (inactive); with CAKI-1, > 100 µM (inactive); with NCI-H23 it was > 100 µM (inactive); in the assay with RPMI-8226 it was > 100 µM (inactive); in the assay on SK-MEL-5, > 100 µM (inactive).

Regarding `COc1ccc(C2=C[C@]3(O)CCCN3C[C@@H]2c2ccc(OC)c(OC)c2)cc1`, the GI50 with HCC 2998 was > 0.01 µM (active); in the assay on SR, < 0.0001 µM (active); in the assay with DMS-273, < 0.0001 µM (active); with COLO 205, < 0.0001 µM (active); in the assay with SF-295, < 0.0001 µM (active); in the assay on HL-60, < 0.0001 µM (active). Further, the GI50 in the assay on OVCAR-3, with EKVX, in the assay on NCI-H522, in the assay on HCT-116, in the assay with TK-10 and in the assay on IGROV-1 was < 0.0001 µM (active) throughout. For the same compound, the GI50 was < 0.0001 µM (active) in the assay on NCI-H460; < 0.0001 µM (active) with CAKI-1; < 0.0001 µM (active) in the assay with NCI-H23; > 0.01 µM (active) in the assay with RPMI-8226; < 0.0001 µM (active) in the assay with SK-MEL-5.

As for `COc1ccc(OC)c(NC(=O)CCC/C(CC(=O)c2ccc(O)c(OC)c2)=N\NC(=O)C[N+](C)(C)C)c1`, the GI50 in the assay with HCC 2998, with SR, in the assay with DMS-273, with COLO 205, in the assay with SF-295 and in the assay on HL-60 was > 100 µM (inactive) each time. Moreover, the GI50 in the assay with OVCAR-3, with EKVX, in the assay with NCI-H522, in the assay on TK-10, in the assay with IGROV-1 and in the assay on NCI-H460 was > 100 µM (inactive) each time. The GI50 with CAKI-1 was > 100 µM (inactive); with NCI-H23 it was > 100 µM (inactive); with RPMI-8226, 79.3 µM (inactive); in the assay with SK-MEL-5 it was > 100 µM (inactive).

Turning to `C=C=C(C(=O)OC)[S+]([O-])c1ccc([N+](=O)[O-])cc1[N+](=O)[O-]` (stereo not given), the GI50 with HCC 2998 was 14.7 µM (inactive); with SR, 14.1 µM (inactive); with DMS-273, 37.4 µM (inactive); with COLO 205 it was 23.5 µM (inactive); in the assay with SF-295 it was > 92.7 µM (inactive); in the assay with HL-60, 20.7 µM (inactive). Further, the GI50 with OVCAR-3 is 25.3 µM (inactive); in the assay with EKVX, > 100 µM (inactive); in the assay with NCI-H522, 14.2 µM (inactive); in the assay with HCT-116 it was 21.4 µM (inactive); with TK-10, 46 µM (inactive); in the assay with IGROV-1, > 69.8 µM (inactive). The GI50 was > 66.7 µM (inactive) with NCI-H460; 25.9 µM (inactive) in the assay on CAKI-1; 53.8 µM (inactive) in the assay on NCI-H23; 21.7 µM (inactive) in the assay with RPMI-8226; 36.2 µM (inactive) in the assay with SK-MEL-5.

Turning to `CC1CC(C)C(=O)C(C(=O)CC2CC(=O)NC2=O)C1` (stereo not given), the GI50 in the assay on HCC 2998, with SR, in the assay on DMS-273, in the assay with COLO 205, with SF-295 and in the assay with HL-60 was > 100 µM (inactive) throughout. The GI50 with OVCAR-3, in the assay with EKVX, in the assay on NCI-H522, in the assay with HCT-116, in the assay on TK-10 and with IGROV-1 was > 100 µM (inactive) in each case. In addition, the GI50 in the assay on NCI-H460, in the assay on CAKI-1, in the assay with NCI-H23 and with RPMI-8226 was > 100 µM (inactive) each time.

In the case of `Cc1cc(NS(=O)(=O)c2ccc(Nc3c4ccccc4nc4c(C(=O)Nc5ccc(S(=O)(=O)N=C(N)N)cc5)ccc(Cl)c34)cc2)no1`, the GI50 was 38.5 µM (inactive) in the assay on HCC 2998; 25.2 µM (inactive) in the assay on SR; 40.6 µM (inactive) in the assay on DMS-273; 83 µM (inactive) in the assay on COLO 205; 73.3 µM (inactive) in the assay with SF-295; 22.2 µM (inactive) in the assay on HL-60. Further, the GI50 was 21.5 µM (inactive) in the assay on OVCAR-3; 65 µM (inactive) in the assay on EKVX; 16 µM (inactive) with NCI-H522; 53.8 µM (inactive) in the assay on HCT-116; > 100 µM (inactive) with TK-10; 98.9 µM (inactive) with NCI-H460. In addition, the GI50 with CAKI-1 was 54.2 µM (inactive); in the assay with NCI-H23, 29.9 µM (inactive); in the assay on RPMI-8226, 29.8 µM (inactive); in the assay with SK-MEL-5, > 100 µM (inactive).

As for `COc1ccc(C(=O)NCCC2=CCCCC2)cc1`, the GI50 with SR, in the assay with DMS-273, with COLO 205, in the assay on SF-295, in the assay with OVCAR-3 and in the assay with EKVX was > 100 µM (inactive) each time. Further, the GI50 with HCT-116, in the assay with TK-10, in the assay on IGROV-1, in the assay with NCI-H460, with CAKI-1 and in the assay with NCI-H23 was > 100 µM (inactive) each time. The GI50 with RPMI-8226 and in the assay with SK-MEL-5 was > 100 µM (inactive) throughout.

For the compound `CCn1c(CSc2nc(-c3ccccc3)c(-c3ccccc3)[nH]2)n[nH]c1=S`, the GI50 was 0.0243 µM (active) in the assay on HCC 2998; > 100 µM (inactive) with SR; > 100 µM (inactive) with DMS-273; > 100 µM (inactive) with COLO 205; > 100 µM (inactive) in the assay with SF-295; > 100 µM (inactive) in the assay on HL-60. Moreover, the GI50 in the assay with OVCAR-3, in the assay on EKVX, in the assay on NCI-H522, with HCT-116, in the assay on TK-10 and in the assay with IGROV-1 was > 100 µM (inactive) throughout. Also, the GI50 with NCI-H460, in the assay on NCI-H23, with RPMI-8226 and in the assay with SK-MEL-5 was > 100 µM (inactive) throughout.

For the compound `CCn1cnc2c(=S)nc(N)[nH]c21`, the GI50 in the assay with HCC 2998, in the assay with SR, in the assay with DMS-273, with COLO 205, in the assay on SF-295 and in the assay with HL-60 was > 100 µM (inactive) in each case. For the same compound, the GI50 in the assay with OVCAR-3, in the assay with EKVX, in the assay with NCI-H522, in the assay with HCT-116, in the assay with TK-10 and in the assay on IGROV-1 was > 100 µM (inactive) each time. For the same compound, the GI50 in the assay on NCI-H460, with NCI-H23 and in the assay on RPMI-8226 was > 100 µM (inactive) each time.

As to `[O-][S+]1CSCS1` (stereo not given), the GI50 in the assay with HCC 2998, with SR, in the assay on DMS-273, in the assay with COLO 205, in the assay on SF-295 and with HL-60 was > 100 µM (inactive) in each case. Moreover, the GI50 with OVCAR-3, in the assay with EKVX, in the assay on NCI-H522, with HCT-116, in the assay with TK-10 and in the assay with IGROV-1 was > 100 µM (inactive) in each case. Besides, the GI50 with CAKI-1, with NCI-H23 and with SK-MEL-5 was > 100 µM (inactive) throughout.

Regarding `COc1ccc(O)c(C(=O)CCC(=O)O)c1`, the GI50 in the assay with HCC 2998, in the assay with SR, in the assay on DMS-273, with COLO 205, in the assay on SF-295 and in the assay with HL-60 was > 100 µM (inactive) each time. Also, the GI50 with OVCAR-3 is > 10 µM (inactive); in the assay with EKVX, > 100 µM (inactive); in the assay on NCI-H522, > 100 µM (inactive); in the assay with TK-10 it was > 100 µM (inactive); in the assay with IGROV-1, > 100 µM (inactive); in the assay with NCI-H460, > 100 µM (inactive). The GI50 in the assay with NCI-H23, in the assay with RPMI-8226 and in the assay with SK-MEL-5 was > 100 µM (inactive) in each case.
